# Results taken from article PMC3427755 (Organic & biomolecular chemistry, 2012).
# Entries after “also recorded” stand apart in the source; their conditions may differ.
# Key:
# PKCα = PKCα (Homo sapiens, UniProt P17252); test: Kinase profiling, PKCα; format: biochemical; settings: read-out: Inhibition rate (%) PKCα
# LCK = LCK (Homo sapiens, UniProt P06239); test: Kinase profiling, LCK; format: biochemical; settings: read-out: Inhibition rate (%) LCK
# B-Raf^WT = B-Raf^WT (Homo sapiens, UniProt P15056); test: In vitro B-Raf kinase assay; format: biochemical
# ERK1 = ERK1 (Homo sapiens, UniProt P27361); test: Kinase profiling, ERK1; format: biochemical; settings: read-out: Inhibition rate (%) ERK1
# SRC = SRC (Homo sapiens, UniProt P12931); test: Kinase profiling, SRC; format: biochemical; settings: read-out: Inhibition rate (%) SRC
# [1] = tested on: A375 (B-Raf^V600E) malignant melanoma cells; test: Anti-proliferation activity, A375 melanoma cells; format: cell-based, human; settings: for inhibition at 10 µM: Homo sapiens, A-375, read-out: Tumor growth inhibition rate A375(B-Raf^V600E); for Tumor growth inhibition rate A375(B-Raf^V600E): [I]=10μM
# EGFR = EGFR (Homo sapiens, UniProt P00533); test: Kinase profiling, EGFR; format: biochemical; settings: read-out: Inhibition rate (%) EGFR
# KDR = KDR (Homo sapiens, UniProt P35968); test: Kinase profiling, KDR; format: biochemical; settings: read-out: Inhibition rate (%) KDR
# [2] = tested on: WM983B (B-Raf^V600E bearing) melanoma cells; test: Melanoma proliferation assay; format: cell-based, human; settings: dose-dependent, 72 h, Figure 3
# cKIT = cKIT (Homo sapiens, UniProt P10721); test: Kinase profiling, cKIT; format: biochemical; settings: read-out: Inhibition rate (%) cKIT
# [3] = tested on: 1205Lu (B-Raf^V600E bearing) melanoma cells; test: Melanoma proliferation assay; format: cell-based, human; settings: dose-dependent, 72 h, Figure 3
# AKT1 = AKT1 (Homo sapiens, UniProt P31749); test: Kinase profiling, AKT1; format: biochemical; settings: read-out: Inhibition rate (%) AKT1
# IKKβ = target: T1, IKKβ (Homo sapiens, UniProt O14920); test: Kinase profiling, IKKβ; format: biochemical; settings: for inhibition at 1 µM / inhibition at 5 µM: read-out: Inhibition rate (%) IKKβ
# T1 sequence (O14920 1-756): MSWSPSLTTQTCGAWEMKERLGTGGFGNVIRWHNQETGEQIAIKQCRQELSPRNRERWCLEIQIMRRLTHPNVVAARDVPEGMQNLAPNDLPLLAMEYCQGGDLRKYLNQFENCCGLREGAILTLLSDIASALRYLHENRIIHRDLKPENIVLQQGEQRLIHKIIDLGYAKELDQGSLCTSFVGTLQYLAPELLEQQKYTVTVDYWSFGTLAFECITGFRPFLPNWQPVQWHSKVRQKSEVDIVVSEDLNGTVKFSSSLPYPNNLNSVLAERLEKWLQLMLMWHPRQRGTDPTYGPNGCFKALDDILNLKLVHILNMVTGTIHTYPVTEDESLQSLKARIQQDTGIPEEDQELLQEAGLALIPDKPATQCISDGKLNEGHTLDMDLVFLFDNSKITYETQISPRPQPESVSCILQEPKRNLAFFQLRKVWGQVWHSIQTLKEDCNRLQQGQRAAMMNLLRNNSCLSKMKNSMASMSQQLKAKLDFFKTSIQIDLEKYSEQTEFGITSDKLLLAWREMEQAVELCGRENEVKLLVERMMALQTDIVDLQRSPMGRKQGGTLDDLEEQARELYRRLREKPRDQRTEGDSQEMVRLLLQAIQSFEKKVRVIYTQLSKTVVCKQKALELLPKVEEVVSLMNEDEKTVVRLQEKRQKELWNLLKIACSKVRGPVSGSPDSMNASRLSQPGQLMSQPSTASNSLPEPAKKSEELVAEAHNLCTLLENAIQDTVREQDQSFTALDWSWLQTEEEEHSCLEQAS
# MET = MET (Homo sapiens, UniProt P08581); test: Kinase profiling, MET; format: biochemical; settings: read-out: Inhibition rate (%) MET
# FGFR1 = FGFR1 (Homo sapiens, UniProt P11362); test: Kinase profiling, FGFR1; format: biochemical; settings: for inhibition at 1 µM / inhibition at 5 µM: read-out: Inhibition rate (%) FGFR1
# PDGFRα = PDGFRα (Homo sapiens, UniProt P16234); test: Kinase profiling, PDGFRα; format: biochemical; settings: read-out: Inhibition rate (%) PDGFRα
# [4] = tested on: WM3918 melanoma cells not expressing mutant B-Raf; test: Melanoma proliferation assay; format: cell-based, human; settings: dose-dependent, 72 h, Figure 3
# IGF1R = IGF1R (Homo sapiens, UniProt P08069); test: Kinase profiling, IGF1R; format: biochemical; settings: read-out: Inhibition rate (%) IGF1R
# P38α = P38α (Homo sapiens, UniProt Q16539); test: Kinase profiling, P38α; format: biochemical; settings: read-out: Inhibition rate (%) P38α
# [5] = tested on: normal human primary fibroblasts (FF2508); test: Proliferation assay; format: cell-based; settings: dose-dependent, 72 h, Figure 3
# CDK2 = CDK2 (Homo sapiens, UniProt P24941); test: Kinase profiling, CDK2; format: biochemical; settings: read-out: Inhibition rate (%) CDK2
# [6] = tested on: SW620 (B-Raf^WT) human colonic carcinoma cells; test: Anti-proliferation activity, SW620 cells; format: cell-based; settings: SW-620, read-out: Tumor growth inhibition rate SW620 (B-Raf)
# B-Raf^V600E = B-Raf^V600E (Homo sapiens, UniProt P15056, V600E); test: In vitro B-Raf kinase assay; format: biochemical
# [7] = tested on: patients harboring the B-Raf^V600E mutation; settings: cited from earlier work
# [8] = read-out: Inhibition rate (%) B-Raf^V600E
# Chain of B-Raf^V600E (P15056 433-726 V600E): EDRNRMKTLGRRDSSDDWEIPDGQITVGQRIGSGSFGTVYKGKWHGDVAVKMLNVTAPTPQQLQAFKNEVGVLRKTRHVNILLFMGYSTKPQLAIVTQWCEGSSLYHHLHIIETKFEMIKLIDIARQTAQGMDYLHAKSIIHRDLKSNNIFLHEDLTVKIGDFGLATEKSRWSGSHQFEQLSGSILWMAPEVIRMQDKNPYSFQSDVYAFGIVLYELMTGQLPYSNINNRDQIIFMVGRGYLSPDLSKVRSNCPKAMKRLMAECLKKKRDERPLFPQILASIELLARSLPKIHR
# Chain of SRC (P12931 whole entry, species assumed): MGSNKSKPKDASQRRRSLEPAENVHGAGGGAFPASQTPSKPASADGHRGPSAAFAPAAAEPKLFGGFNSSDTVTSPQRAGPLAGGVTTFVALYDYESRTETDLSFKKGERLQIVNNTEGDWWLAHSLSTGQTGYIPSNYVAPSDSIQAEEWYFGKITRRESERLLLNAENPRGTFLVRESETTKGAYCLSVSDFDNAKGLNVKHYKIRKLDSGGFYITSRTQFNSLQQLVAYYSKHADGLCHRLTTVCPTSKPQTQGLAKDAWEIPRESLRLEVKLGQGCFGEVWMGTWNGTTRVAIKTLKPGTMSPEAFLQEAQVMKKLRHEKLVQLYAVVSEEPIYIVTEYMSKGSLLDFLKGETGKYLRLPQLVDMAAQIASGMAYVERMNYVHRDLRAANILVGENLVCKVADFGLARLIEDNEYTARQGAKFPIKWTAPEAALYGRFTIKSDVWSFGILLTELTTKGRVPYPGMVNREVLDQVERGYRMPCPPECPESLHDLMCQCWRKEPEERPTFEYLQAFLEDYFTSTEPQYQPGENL
# Chain of AKT1 (P31749 whole entry, species assumed): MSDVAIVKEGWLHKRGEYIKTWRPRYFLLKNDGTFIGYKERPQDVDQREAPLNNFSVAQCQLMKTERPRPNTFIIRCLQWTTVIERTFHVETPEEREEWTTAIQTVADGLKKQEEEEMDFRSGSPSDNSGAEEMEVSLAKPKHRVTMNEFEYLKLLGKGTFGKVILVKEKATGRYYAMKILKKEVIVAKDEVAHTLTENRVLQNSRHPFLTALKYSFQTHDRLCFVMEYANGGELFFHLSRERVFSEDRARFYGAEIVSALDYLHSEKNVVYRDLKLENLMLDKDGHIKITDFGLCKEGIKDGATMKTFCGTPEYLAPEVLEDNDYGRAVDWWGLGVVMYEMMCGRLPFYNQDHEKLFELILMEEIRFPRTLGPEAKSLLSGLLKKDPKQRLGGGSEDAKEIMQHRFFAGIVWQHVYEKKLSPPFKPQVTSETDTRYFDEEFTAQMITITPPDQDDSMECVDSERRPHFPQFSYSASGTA
# Chain of IGF1R (P08069 31-1367, species assumed): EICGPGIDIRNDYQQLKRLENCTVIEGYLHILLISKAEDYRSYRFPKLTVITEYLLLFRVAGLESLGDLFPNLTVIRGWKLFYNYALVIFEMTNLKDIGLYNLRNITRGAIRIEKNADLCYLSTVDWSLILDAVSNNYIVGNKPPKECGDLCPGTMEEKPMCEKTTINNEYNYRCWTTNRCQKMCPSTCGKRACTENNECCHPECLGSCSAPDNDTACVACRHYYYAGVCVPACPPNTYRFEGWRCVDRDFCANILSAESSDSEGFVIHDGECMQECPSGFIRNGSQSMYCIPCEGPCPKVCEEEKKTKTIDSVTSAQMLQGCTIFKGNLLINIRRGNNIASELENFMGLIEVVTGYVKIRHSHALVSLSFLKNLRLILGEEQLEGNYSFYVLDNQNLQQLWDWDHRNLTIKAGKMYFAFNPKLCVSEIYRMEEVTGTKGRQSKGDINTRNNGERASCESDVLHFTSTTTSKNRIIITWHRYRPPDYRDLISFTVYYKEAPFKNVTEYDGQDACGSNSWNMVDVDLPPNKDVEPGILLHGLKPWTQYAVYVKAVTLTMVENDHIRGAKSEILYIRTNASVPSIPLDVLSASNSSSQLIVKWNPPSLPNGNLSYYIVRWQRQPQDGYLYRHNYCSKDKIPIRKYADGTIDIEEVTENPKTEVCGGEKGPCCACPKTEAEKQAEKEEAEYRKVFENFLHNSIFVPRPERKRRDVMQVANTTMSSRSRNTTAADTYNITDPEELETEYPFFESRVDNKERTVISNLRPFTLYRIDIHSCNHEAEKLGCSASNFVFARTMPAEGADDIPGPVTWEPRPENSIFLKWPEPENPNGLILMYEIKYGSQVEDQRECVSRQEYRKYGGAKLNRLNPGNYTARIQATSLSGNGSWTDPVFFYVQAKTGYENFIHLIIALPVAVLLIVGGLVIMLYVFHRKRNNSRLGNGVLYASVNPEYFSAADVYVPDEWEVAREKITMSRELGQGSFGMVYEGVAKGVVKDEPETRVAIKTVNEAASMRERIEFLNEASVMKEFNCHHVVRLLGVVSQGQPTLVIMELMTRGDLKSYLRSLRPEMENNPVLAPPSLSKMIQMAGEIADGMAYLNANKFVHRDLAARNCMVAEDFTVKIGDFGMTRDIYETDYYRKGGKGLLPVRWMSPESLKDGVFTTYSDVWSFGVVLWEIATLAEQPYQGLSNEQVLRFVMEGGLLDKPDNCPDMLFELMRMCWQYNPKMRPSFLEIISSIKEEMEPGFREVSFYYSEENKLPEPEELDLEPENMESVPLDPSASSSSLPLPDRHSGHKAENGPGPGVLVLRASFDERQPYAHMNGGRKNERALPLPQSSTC
# Chain of ERK1 (P27361 whole entry, species assumed): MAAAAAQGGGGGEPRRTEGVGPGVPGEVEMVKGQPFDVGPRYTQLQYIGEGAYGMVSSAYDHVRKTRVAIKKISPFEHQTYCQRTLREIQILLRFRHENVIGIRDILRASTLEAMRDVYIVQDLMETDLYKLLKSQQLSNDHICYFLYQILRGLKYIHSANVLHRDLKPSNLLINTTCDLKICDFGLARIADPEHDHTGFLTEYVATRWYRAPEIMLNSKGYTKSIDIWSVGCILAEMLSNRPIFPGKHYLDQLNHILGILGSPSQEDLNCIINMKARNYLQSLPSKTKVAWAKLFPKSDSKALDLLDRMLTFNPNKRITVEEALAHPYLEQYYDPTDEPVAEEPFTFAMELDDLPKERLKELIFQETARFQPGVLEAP
# Chain of EGFR (P00533 25-1210, species assumed): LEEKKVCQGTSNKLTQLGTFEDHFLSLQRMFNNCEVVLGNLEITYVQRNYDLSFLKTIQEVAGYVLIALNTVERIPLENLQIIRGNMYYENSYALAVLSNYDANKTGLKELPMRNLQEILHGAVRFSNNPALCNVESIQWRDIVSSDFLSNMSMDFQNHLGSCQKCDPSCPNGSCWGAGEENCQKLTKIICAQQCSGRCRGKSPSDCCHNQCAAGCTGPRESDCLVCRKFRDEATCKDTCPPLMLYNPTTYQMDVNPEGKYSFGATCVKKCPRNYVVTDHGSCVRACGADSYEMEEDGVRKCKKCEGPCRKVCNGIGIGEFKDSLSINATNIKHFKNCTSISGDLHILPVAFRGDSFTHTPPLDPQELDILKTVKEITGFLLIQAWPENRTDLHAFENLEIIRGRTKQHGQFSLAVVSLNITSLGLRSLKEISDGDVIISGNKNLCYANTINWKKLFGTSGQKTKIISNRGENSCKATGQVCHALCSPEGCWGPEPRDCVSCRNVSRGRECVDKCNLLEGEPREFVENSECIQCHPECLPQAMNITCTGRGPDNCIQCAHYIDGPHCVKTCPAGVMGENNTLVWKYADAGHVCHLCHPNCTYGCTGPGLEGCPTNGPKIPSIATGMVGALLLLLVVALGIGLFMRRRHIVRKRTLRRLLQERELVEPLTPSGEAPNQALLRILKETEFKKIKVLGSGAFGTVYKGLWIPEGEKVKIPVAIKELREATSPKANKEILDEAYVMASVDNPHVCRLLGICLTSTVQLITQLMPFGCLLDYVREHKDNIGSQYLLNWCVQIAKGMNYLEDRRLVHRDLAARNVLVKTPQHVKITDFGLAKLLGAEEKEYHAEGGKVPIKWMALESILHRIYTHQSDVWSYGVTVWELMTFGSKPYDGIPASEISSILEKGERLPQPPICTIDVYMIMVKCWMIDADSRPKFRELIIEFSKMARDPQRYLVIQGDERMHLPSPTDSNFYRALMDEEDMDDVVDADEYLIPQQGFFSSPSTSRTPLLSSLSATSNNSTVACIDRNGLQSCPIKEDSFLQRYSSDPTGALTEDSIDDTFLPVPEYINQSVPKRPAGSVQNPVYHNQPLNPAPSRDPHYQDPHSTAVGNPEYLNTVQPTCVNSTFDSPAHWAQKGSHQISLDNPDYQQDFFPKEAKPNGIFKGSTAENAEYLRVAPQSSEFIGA
# Chain of B-Raf^WT (P15056 433-726): as the sequence (P15056 433-726 V600E) above, with E168V counted along it
Structure (SMILES),inhibition at 5 µM (PKCα) [%],inhibition at 5 µM (LCK) [%],inhibition at 1 µM (ERK1) [%],inhibition at 5 µM (ERK1) [%],inhibition at 1 µM (SRC) [%],inhibition at 5 µM (SRC) [%],inhibition at 10 µM [1] [%],Tumor growth inhibition rate A375(B-Raf^V600E) [1],inhibition at 5 µM (EGFR) [%],inhibition at 5 µM (KDR) [%],proliferation of WM983B cells [2],inhibition at 1 µM (cKIT) [%],inhibition at 5 µM (cKIT) [%],proliferation of 1205Lu cells [3],inhibition at 1 µM (AKT1) [%],inhibition at 5 µM (AKT1) [%],inhibition at 1 µM (IKKβ) [%],inhibition at 5 µM (IKKβ) [%],inhibition at 1 µM (MET) [%],inhibition at 5 µM (MET) [%],other results
"O=C1NC(=S)NC(=O)C1=Cc1ccc(-c2ccc(Br)cc2)o1 [Compound 22f, 5-[5-(4-bromo-phenyl)-furan-2ylmethylene]-2-thioxo-dihydro-pyrimidine-4,6-dione]",26.4,10.5,14.5,30.7,8.6,28.3,65.3,potent growth inhibition activity,46.1,6.1,significantly inhibited,18.6,40.3,significantly inhibited,10.8,20.3,27.8,52.1,34.2,42.2,"inhibition at 1 µM (PKCα): 16.2%; inhibition at 1 µM (LCK): 10.5%; IC50 (B-Raf^WT): 600 nM; inhibition at 1 µM (EGFR): 12.6%; inhibition at 1 µM (KDR): 3.9%; Inhibition rate (%) IKKβ (IKKβ; 5μM, ATP at Km): significantly inhibited; Inhibition rate (%) FGFR1 (FGFR1; 5μM, ATP at Km): significantly inhibited; inhibition at 1 µM (FGFR1): 15%; inhibition at 5 µM (FGFR1): 72.2%; inhibition at 1 µM (PDGFRα): 7.2%; inhibition at 5 µM (PDGFRα): 20.4%; proliferation of WM3918 cells [4]: significantly more resistant; inhibition at 1 µM (IGF1R): 9.5%; inhibition at 5 µM (IGF1R): 15.6%; inhibition at 5 µM (P38α): 7.7%; proliferation of FF2508 fibroblasts [5]: significantly more resistant; inhibition at 1 µM (CDK2): 11.6%; inhibition at 5 µM (CDK2): 39.7%"
"CC(C)(C)c1ccc(-c2ccc(C=C3C(=O)NC(=S)NC3=O)o2)cc1 [Compound 22i, 5-[5-(4-tert-butyl-phenyl)-furan-2ylmethylene]-2-thioxo-dihydro-pyrimidine-4,6-dione]",–,–,–,–,–,–,95.4,–,–,–,–,–,–,–,–,–,–,–,–,–,inhibition at 2 µM (B-Raf^WT; read-out: Inhibition rate (%) B-Raf): 29%; Tumor growth inhibition rate A375(B-Raf^V600E) ([1]; 10 µM): potent growth inhibition activity; also recorded: virtually complete growth inhibition; inhibition at 10 µM [6]: 7.6%; inhibition at 0.5 µM (B-Raf^V600E; [8]): 36%; inhibition at 2 µM (B-Raf^V600E; [8]): 57%
"O=C1NC(=S)NC(=O)C1=Cc1ccc(-c2ccc3c(c2)OCO3)o1 [Compound 22q, 5-[5-(3,4-methylenedioxy)-furan-2ylmethylene]-2-thioxo-dihydro-pyrimidine-4,6-dione]",5.2,0.8,10,13.7,6.2,15.2,77.7,potent growth inhibition activity,19.4,1.2,significantly inhibited,18.3,20,significantly inhibited,4.6,14.5,15,35.7,18.6,19.4,inhibition at 10 µM [6]: 47.7%; inhibition at 1 µM (FGFR1): 4.9%; inhibition at 5 µM (FGFR1): 18.6%; inhibition at 1 µM (PDGFRα): 6%; inhibition at 5 µM (PDGFRα): 7.7%; selectivity for B-Raf^V600E over other tested protein kinases (B-Raf^V600E; panel of 16 protein kinases): more than 10 fold; proliferation of WM3918 cells [4]: significantly more resistant; inhibition at 1 µM (IGF1R): 5.6%; inhibition at 5 µM (IGF1R): 6.8%; proliferation of FF2508 fibroblasts [5]: significantly more resistant; inhibition at 1 µM (CDK2): 3.3%; inhibition at 5 µM (CDK2): 12.6%
CCCS(=O)(=O)Nc1ccc(F)c(C(=O)c2c[nH]c3ncc(-c4ccc(Cl)cc4)cc23)c1F [Vemurafenib],–,–,–,–,–,–,–,–,–,–,–,–,–,–,–,–,–,–,–,–,side effects in treated patients ([7]; Vemurafenib treated patients): induction of keratoacanthoma was frequently observed; tumor regression in patients ([7]; patients harboring the B-Raf^V600E mutation): complete or partial tumor regression in the majority of patients
